Results reported in article PMC7313537 (PLoS ONE, 2020).

What was measured:
Assay in all cases: Broader kinase panel (PerkinElmer)
Type in all cases: biochemical
[1] = molecular target: T1, Abl (T315I) (Homo sapiens, UniProt P00519, T315I); settings: 100 nM; read-out: Average Percent Inhibition
T1 construct: purchased In-house HTRF panel (56 kinases) and PerkinElmer (161-kinase panel)
Source text: (§1) […]. […] […].

[2] = molecular target: T2, Mer (Homo sapiens, UniProt Q12866); settings: 100 nM; read-out: Average Percent Inhibition
T2 construct: purchased In-house HTRF panel (56 kinases) and PerkinElmer (161-kinase panel)
Source text: as §1

[3] = molecular target: T3, SGK2 (Homo sapiens, UniProt Q9HBY8); settings: 100 nM; read-out: Average Percent Inhibition
T3 construct: purchased In-house HTRF panel (56 kinases) and PerkinElmer (161-kinase panel)
Source text: as §1

[4] = molecular target: RET (Homo sapiens, UniProt P07949); settings: 100 nM; read-out: Average Percent Inhibition
Chain of RET (P07949 29-1114, species assumed): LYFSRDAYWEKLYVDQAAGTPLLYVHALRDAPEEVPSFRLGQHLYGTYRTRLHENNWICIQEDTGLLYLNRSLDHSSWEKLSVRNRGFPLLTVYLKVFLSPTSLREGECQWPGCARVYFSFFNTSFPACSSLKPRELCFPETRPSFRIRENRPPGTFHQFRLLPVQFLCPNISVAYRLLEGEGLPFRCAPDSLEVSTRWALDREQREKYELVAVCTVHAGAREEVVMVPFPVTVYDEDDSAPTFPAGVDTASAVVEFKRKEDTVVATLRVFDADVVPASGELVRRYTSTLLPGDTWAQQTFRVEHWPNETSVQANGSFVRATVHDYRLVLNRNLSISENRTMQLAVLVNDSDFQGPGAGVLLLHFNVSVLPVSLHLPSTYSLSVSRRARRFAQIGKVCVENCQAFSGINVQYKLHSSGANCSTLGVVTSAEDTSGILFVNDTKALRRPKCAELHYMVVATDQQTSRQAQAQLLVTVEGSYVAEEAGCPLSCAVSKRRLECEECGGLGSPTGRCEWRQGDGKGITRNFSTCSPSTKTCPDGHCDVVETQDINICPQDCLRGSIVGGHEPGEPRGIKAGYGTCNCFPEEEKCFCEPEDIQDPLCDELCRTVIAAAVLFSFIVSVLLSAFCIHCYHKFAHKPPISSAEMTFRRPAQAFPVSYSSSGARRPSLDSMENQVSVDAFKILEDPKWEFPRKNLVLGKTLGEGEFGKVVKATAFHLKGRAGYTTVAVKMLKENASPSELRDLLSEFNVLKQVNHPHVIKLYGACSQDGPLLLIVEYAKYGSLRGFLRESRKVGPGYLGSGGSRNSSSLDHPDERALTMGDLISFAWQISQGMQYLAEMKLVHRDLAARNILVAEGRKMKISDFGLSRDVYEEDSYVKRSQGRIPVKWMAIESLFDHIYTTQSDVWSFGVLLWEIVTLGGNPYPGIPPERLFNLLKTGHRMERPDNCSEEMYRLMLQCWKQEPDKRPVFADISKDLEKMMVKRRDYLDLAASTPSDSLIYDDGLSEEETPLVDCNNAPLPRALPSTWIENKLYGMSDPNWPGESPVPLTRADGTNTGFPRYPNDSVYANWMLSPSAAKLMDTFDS
Source text: as §1

[5] = molecular target: T4, Ca MK2a (Homo sapiens, UniProt Q9UQM7); settings: 100 nM; read-out: Average Percent Inhibition
T4 construct: purchased In-house HTRF panel (56 kinases) and PerkinElmer (161-kinase panel)
Source text: as §1

[6] = molecular target: T5, RET Y791F (Homo sapiens, UniProt P07949, Y791F); settings: 100 nM; read-out: Average Percent Inhibition
T5 construct: purchased In-house HTRF panel (56 kinases) and PerkinElmer (161-kinase panel)
T5 sequence (P07949 29-1114 Y791F): as the sequence (P07949 29-1114, species assumed) above, with Y763F counted along it
Source text: as §1

[7] = molecular target: T6, NEK1 (Homo sapiens, UniProt Q96PY6); settings: 100 nM; read-out: Average Percent Inhibition
T6 construct: purchased In-house HTRF panel (56 kinases) and PerkinElmer (161-kinase panel)
Source text: as §1

[8] = molecular target: T7, FMS (Homo sapiens, UniProt P07333); settings: 100 nM; read-out: Average Percent Inhibition
T7 construct: purchased In-house HTRF panel (56 kinases) and PerkinElmer (161-kinase panel)
Source text: as §1

[9] = molecular target: LOK (Homo sapiens, UniProt O94804); settings: 100 nM; read-out: Average Percent Inhibition
Source text: as §1

[10] = molecular target: T8, MET (Homo sapiens, UniProt P08581); settings: 100 nM; read-out: Average Percent Inhibition
T8 construct: purchased In-house HTRF panel (56 kinases) and PerkinElmer (161-kinase panel)
Source text: as §1

[11] = molecular target: T9, EPHA1 (Homo sapiens, UniProt P21709); settings: 100 nM; read-out: Average Percent Inhibition
T9 construct: purchased In-house HTRF panel (56 kinases) and PerkinElmer (161-kinase panel)
Source text: as §1

[12] = molecular target: T10, DDR2 (Homo sapiens, UniProt Q16832); settings: 100 nM; read-out: Average Percent Inhibition
T10 construct: purchased In-house HTRF panel (56 kinases) and PerkinElmer (161-kinase panel)
Source text: as §1

[13] = molecular target: T11, Ret (V804L) (Homo sapiens, UniProt P07949, V804L); settings: 100 nM; read-out: Average Percent Inhibition
T11 construct: purchased In-house HTRF panel (56 kinases) and PerkinElmer (161-kinase panel)
T11 sequence (P07949 29-1114 V804L): as the sequence (P07949 29-1114, species assumed) above, with V776L counted along it
Source text: as §1

[14] = molecular target: T12, TRKC (NTRK3) (Homo sapiens, UniProt Q16288); settings: 100 nM; read-out: Average Percent Inhibition
T12 construct: purchased In-house HTRF panel (56 kinases) and PerkinElmer (161-kinase panel)
Source text: as §1

[15] = test system: CAMK2; settings: 100 nM
Source text: as §1

[16] = molecular target: T13, AKT3 (Homo sapiens, UniProt Q9Y243); settings: 100 nM; read-out: Average Percent Inhibition
T13 construct: purchased In-house HTRF panel (56 kinases) and PerkinElmer (161-kinase panel)
T13 sequence (Q9Y243 whole entry): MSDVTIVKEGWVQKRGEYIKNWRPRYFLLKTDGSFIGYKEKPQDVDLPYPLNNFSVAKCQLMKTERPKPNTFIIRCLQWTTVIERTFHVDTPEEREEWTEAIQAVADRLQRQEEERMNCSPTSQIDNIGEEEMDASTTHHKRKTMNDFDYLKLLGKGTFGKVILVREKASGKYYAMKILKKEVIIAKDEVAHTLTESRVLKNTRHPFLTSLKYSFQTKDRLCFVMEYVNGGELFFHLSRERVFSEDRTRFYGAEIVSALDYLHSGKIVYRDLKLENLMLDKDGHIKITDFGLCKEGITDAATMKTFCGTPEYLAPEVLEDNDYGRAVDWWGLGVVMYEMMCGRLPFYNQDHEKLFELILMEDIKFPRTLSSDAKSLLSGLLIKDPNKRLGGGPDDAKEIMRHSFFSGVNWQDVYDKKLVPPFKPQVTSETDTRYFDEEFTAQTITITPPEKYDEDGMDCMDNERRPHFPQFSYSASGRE
Source text: as §1

[17] = molecular target: T14, PRKCI (PKC-iota) (Homo sapiens, UniProt P41743); settings: 100 nM; read-out: Average Percent Inhibition
T14 construct: purchased In-house HTRF panel (56 kinases) and PerkinElmer (161-kinase panel)
Source text: as §1

[18] = test system: AMPK; settings: 100 nM
Source text: as §1

[19] = molecular target: T15, MARK4 (Homo sapiens, UniProt Q96L34); settings: 100 nM; read-out: Average Percent Inhibition
T15 construct: purchased In-house HTRF panel (56 kinases) and PerkinElmer (161-kinase panel)
Source text: as §1

[20] = molecular target: T16, Fer (Homo sapiens, UniProt P16591); settings: 100 nM; read-out: Average Percent Inhibition
T16 construct: purchased In-house HTRF panel (56 kinases) and PerkinElmer (161-kinase panel)
Source text: as §1

[21] = molecular target: T17, GSK3-alpha (Homo sapiens, UniProt P49840); settings: 100 nM; read-out: Average Percent Inhibition
T17 construct: purchased In-house HTRF panel (56 kinases) and PerkinElmer (161-kinase panel)
Source text: as §1

[22] = molecular target: T18, PKC-delta (Homo sapiens, UniProt Q05655); settings: 100 nM; read-out: Average Percent Inhibition
T18 construct: purchased In-house HTRF panel (56 kinases) and PerkinElmer (161-kinase panel)
Source text: as §1

[23] = molecular target: T19, ALK (Homo sapiens, UniProt Q9UM73); settings: 100 nM; read-out: Average Percent Inhibition
T19 construct: purchased In-house HTRF panel (56 kinases) and PerkinElmer (161-kinase panel)
Source text: as §1

[24] = molecular target: T20, CHK1 (Homo sapiens, UniProt O14757); settings: 100 nM; read-out: Average Percent Inhibition
T20 construct: purchased In-house HTRF panel (56 kinases) and PerkinElmer (161-kinase panel)
Source text: as §1

[25] = molecular target: T21, SRC (Homo sapiens, UniProt P12931); settings: 100 nM; read-out: Average Percent Inhibition
T21 construct: purchased In-house HTRF panel (56 kinases) and PerkinElmer (161-kinase panel)
Source text: as §1

[26] = molecular target: T22, p38-gamma (Homo sapiens, UniProt P53778); settings: 100 nM; read-out: Average Percent Inhibition
T22 construct: purchased In-house HTRF panel (56 kinases) and PerkinElmer (161-kinase panel)
T22 sequence (P53778 whole entry): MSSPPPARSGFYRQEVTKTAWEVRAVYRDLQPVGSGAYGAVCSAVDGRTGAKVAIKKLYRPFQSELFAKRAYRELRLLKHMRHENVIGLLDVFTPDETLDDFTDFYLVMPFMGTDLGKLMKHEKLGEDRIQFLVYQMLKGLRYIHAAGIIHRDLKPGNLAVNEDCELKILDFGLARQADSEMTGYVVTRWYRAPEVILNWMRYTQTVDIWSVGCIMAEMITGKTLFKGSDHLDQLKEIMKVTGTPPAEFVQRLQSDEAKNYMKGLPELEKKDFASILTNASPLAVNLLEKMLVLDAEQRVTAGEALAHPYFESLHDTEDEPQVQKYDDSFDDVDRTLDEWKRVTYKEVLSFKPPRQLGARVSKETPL
Source text: as §1

[27] = molecular target: T23, p38-delta (Homo sapiens, UniProt O15264); settings: 100 nM; read-out: Average Percent Inhibition
T23 construct: purchased In-house HTRF panel (56 kinases) and PerkinElmer (161-kinase panel)
Source text: as §1

[28] = molecular target: T24, FRK (Homo sapiens, UniProt P42685); settings: 100 nM; read-out: Average Percent Inhibition
T24 construct: purchased In-house HTRF panel (56 kinases) and PerkinElmer (161-kinase panel)
T24 sequence (P42685 whole entry): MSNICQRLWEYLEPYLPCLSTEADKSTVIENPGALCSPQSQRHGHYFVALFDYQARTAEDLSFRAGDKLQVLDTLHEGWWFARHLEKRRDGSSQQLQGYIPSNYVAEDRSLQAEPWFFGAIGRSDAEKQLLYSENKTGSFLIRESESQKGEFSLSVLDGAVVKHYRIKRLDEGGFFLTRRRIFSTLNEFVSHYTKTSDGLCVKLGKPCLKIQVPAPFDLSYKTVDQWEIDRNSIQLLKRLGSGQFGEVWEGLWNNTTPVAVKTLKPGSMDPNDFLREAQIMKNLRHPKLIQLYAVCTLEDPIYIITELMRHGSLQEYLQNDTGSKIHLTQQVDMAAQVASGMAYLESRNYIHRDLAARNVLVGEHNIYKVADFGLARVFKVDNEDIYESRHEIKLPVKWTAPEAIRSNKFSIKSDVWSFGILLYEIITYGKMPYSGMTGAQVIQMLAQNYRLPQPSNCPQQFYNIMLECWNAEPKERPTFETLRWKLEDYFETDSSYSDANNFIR
Source text: as §1

[29] = molecular target: T25, EPHB2 (Homo sapiens, UniProt P29323); settings: 100 nM; read-out: Average Percent Inhibition
T25 construct: purchased In-house HTRF panel (56 kinases) and PerkinElmer (161-kinase panel)
Source text: as §1

[30] = molecular target: T26, SRM (SRMS) (Homo sapiens, UniProt Q9H3Y6); settings: 100 nM; read-out: Average Percent Inhibition
T26 construct: purchased In-house HTRF panel (56 kinases) and PerkinElmer (161-kinase panel)
T26 sequence (Q9H3Y6 whole entry): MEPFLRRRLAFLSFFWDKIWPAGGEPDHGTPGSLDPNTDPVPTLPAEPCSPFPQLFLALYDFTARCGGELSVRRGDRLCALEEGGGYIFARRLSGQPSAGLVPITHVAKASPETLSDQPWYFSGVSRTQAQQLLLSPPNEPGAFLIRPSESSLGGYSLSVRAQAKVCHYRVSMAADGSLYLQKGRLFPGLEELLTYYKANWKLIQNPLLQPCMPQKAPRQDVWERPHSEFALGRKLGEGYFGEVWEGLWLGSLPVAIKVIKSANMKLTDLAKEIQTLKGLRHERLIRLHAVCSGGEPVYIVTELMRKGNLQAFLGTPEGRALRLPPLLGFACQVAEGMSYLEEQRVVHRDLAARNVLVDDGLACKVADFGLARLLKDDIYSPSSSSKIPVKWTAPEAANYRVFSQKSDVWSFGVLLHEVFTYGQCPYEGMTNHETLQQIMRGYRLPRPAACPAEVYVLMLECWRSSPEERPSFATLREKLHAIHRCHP
Source text: as §1

[31] = molecular target: T27, AurB (Homo sapiens, UniProt Q96GD4); settings: 100 nM; read-out: Average Percent Inhibition
T27 construct: purchased In-house HTRF panel (56 kinases) and PerkinElmer (161-kinase panel)
Source text: as §1

[32] = molecular target: T28, FGR (Homo sapiens, UniProt P09769); settings: 100 nM; read-out: Average Percent Inhibition
T28 construct: purchased In-house HTRF panel (56 kinases) and PerkinElmer (161-kinase panel)
Source text: as §1

[33] = molecular target: T29, BRSK2 (Homo sapiens, UniProt Q8IWQ3); settings: 100 nM; read-out: Average Percent Inhibition
T29 construct: purchased In-house HTRF panel (56 kinases) and PerkinElmer (161-kinase panel)
T29 sequence (Q8IWQ3 whole entry): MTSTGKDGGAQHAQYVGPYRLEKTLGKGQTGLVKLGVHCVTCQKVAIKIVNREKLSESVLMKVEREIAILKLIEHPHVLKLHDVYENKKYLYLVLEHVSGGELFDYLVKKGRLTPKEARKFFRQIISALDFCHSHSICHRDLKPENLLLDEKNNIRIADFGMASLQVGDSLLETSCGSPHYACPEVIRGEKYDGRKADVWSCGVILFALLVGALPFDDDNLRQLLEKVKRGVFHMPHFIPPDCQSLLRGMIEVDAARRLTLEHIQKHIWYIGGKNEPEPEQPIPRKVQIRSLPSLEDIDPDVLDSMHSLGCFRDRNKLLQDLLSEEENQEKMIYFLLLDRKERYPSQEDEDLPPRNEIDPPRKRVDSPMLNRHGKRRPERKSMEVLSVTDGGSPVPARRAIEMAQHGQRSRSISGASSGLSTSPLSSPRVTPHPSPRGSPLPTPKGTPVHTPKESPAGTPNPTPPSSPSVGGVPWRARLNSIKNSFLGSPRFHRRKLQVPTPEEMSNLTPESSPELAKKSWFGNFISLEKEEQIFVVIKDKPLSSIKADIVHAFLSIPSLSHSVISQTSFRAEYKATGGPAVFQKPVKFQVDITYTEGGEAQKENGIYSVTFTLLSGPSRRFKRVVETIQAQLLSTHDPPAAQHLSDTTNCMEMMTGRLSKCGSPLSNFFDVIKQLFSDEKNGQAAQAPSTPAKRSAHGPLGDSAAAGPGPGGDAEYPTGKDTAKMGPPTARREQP
Source text: as §1

[34] = molecular target: T30, PHKG2 (Homo sapiens, UniProt P15735); settings: 100 nM; read-out: Average Percent Inhibition
T30 construct: purchased In-house HTRF panel (56 kinases) and PerkinElmer (161-kinase panel)
T30 sequence (P15735 whole entry, species assumed): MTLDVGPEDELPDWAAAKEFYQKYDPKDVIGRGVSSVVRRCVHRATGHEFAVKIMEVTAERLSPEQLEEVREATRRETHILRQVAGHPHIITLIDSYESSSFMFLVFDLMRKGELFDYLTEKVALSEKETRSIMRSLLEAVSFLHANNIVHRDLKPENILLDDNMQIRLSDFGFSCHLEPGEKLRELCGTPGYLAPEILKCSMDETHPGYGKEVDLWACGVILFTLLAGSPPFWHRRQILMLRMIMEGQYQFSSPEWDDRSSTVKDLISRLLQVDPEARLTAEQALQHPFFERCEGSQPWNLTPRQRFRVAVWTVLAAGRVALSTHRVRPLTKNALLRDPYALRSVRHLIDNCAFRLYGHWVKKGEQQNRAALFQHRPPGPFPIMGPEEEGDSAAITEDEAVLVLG
Source text: as §1

[35] = molecular target: T31, EPHB3 (Homo sapiens, UniProt P54753); settings: 100 nM; read-out: Average Percent Inhibition
T31 construct: purchased In-house HTRF panel (56 kinases) and PerkinElmer (161-kinase panel)
Source text: as §1

[36] = molecular target: T32, Yes (Homo sapiens, UniProt P07947); settings: 100 nM; read-out: Average Percent Inhibition
T32 construct: purchased In-house HTRF panel (56 kinases) and PerkinElmer (161-kinase panel)
Source text: as §1

[37] = molecular target: T33, CK1-epsilon (Homo sapiens, UniProt P49674); settings: 100 nM; read-out: Average Percent Inhibition
T33 construct: purchased In-house HTRF panel (56 kinases) and PerkinElmer (161-kinase panel)
Source text: as §1

[38] = molecular target: T34, LYN (Homo sapiens, UniProt P07948); settings: 100 nM; read-out: Average Percent Inhibition
T34 construct: purchased In-house HTRF panel (56 kinases) and PerkinElmer (161-kinase panel)
T34 sequence (P07948 whole entry): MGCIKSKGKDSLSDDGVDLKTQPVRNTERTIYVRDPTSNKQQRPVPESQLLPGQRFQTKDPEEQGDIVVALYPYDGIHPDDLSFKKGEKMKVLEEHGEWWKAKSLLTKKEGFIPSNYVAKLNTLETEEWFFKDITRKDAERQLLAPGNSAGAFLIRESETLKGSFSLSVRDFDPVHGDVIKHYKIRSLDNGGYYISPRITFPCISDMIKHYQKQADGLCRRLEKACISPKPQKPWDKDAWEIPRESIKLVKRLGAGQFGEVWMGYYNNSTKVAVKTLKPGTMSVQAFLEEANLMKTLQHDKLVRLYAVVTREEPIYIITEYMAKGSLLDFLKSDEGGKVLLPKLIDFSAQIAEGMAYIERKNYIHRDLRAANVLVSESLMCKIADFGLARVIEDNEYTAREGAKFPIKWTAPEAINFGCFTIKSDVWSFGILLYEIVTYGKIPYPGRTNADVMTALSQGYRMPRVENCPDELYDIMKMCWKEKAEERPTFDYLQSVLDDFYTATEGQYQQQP
Source text: as §1

[39] = molecular target: T35, MST2 (Homo sapiens, UniProt Q13188); settings: 100 nM; read-out: Average Percent Inhibition
T35 construct: purchased In-house HTRF panel (56 kinases) and PerkinElmer (161-kinase panel)
Source text: as §1

[40] = molecular target: T36, TSSK1 (Homo sapiens, UniProt Q9BXA7); settings: 100 nM; read-out: Average Percent Inhibition
T36 construct: purchased In-house HTRF panel (56 kinases) and PerkinElmer (161-kinase panel)
Source text: as §1

[41] = molecular target: T37, MST1 (Homo sapiens, UniProt Q13043); settings: 100 nM; read-out: Average Percent Inhibition
T37 construct: purchased In-house HTRF panel (56 kinases) and PerkinElmer (161-kinase panel)
Source text: as §1

[42] = molecular target: T38, EPHA8 (Homo sapiens, UniProt P29322); settings: 100 nM; read-out: Average Percent Inhibition
T38 construct: purchased In-house HTRF panel (56 kinases) and PerkinElmer (161-kinase panel)
Source text: as §1

[43] = molecular target: T39, AurC (Homo sapiens, UniProt Q9UQB9); settings: 100 nM; read-out: Average Percent Inhibition
T39 construct: purchased In-house HTRF panel (56 kinases) and PerkinElmer (161-kinase panel)
T39 sequence (Q9UQB9 whole entry): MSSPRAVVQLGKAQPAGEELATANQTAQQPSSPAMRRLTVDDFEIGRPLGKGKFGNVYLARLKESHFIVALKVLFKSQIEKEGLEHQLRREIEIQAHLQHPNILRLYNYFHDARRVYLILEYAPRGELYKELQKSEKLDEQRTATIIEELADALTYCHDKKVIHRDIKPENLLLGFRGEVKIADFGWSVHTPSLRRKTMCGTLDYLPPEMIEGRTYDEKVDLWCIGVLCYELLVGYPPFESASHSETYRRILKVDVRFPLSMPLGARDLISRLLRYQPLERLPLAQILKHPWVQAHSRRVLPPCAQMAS
Source text: as §1

[44] = molecular target: T40, MARK1 (Homo sapiens, UniProt Q9P0L2); settings: 100 nM; read-out: Average Percent Inhibition
T40 construct: purchased In-house HTRF panel (56 kinases) and PerkinElmer (161-kinase panel)
Source text: as §1

CCN1C(=O)N(c2c(F)c(OC)cc(OC)c2F)Cc2cnc3[nH]c(CN4CCOCC4)cc3c21 [INCB054828, pemigatinib]
inhibition at 0.1 µM [1]: 2%
inhibition at 0.1 µM [2]: -1%
inhibition at 0.1 µM [3]: -2%
inhibition at 0.1 µM [4]: 7%
inhibition at 0.1 µM [5]: 2%
inhibition at 0.1 µM [6]: 6%
inhibition at 0.1 µM [7]: 1%
inhibition at 0.1 µM [8]: -10%
inhibition at 0.1 µM [9]: -1%
inhibition at 0.1 µM [10]: -2%
inhibition at 0.1 µM [11]: 2%
inhibition at 0.1 µM [12]: -1%
inhibition at 0.1 µM [13]: 0%
inhibition at 0.1 µM [14]: 3%
Average Percent Inhibition [15]: 2%
inhibition at 0.1 µM [16]: 3%
inhibition at 0.1 µM [17]: 3%
Average Percent Inhibition [18]: 4%
inhibition at 0.1 µM [19]: -4%
inhibition at 0.1 µM [20]: 17%
inhibition at 0.1 µM [21]: 2%
inhibition at 0.1 µM [22]: 9%
inhibition at 0.1 µM [23]: -1%
inhibition at 0.1 µM [24]: 0%
inhibition at 0.1 µM [25]: 1%
inhibition at 0.1 µM [26]: -3%
inhibition at 0.1 µM [27]: 2%
inhibition at 0.1 µM [28]: 0%
inhibition at 0.1 µM [29]: 3%
inhibition at 0.1 µM [30]: 1%
inhibition at 0.1 µM [31]: 11%
inhibition at 0.1 µM [32]: 3%
inhibition at 0.1 µM [33]: -2%
inhibition at 0.1 µM [34]: -1%
inhibition at 0.1 µM [35]: 0%
inhibition at 0.1 µM [36]: 3%
inhibition at 0.1 µM [37]: -1%
inhibition at 0.1 µM [38]: 14%
inhibition at 0.1 µM [39]: 3%
inhibition at 0.1 µM [40]: -3%
inhibition at 0.1 µM [41]: -1%
inhibition at 0.1 µM [42]: -2%
inhibition at 0.1 µM [43]: -4%
inhibition at 0.1 µM [44]: 10%
